Values quoted from earlier work in article PMC12057336 (Antimicrobial Agents and Chemotherapy, 2025).

Legend:
Conditions in all cases: cited from earlier work
[1] = tested on: MATE2-K
[2] = tested on: OCT1
[3] = tested on: MATE2-K; remark: listed apart in the source

**Q.** Which “inhibitor of MATE2-K” value [1] does the source give for `CC(=O)NC[C@H]1CN(c2ccc(N3CCOCC3)c(F)c2)C(=O)O1` [Linezolid] here?
**A.** not an inhibitor

**Q.** And the “inhibitor of OCT1” value [2]?
**A.** not an inhibitor

**Q.** And the “substrate for MATE2-K” value [3]?
**A.** not a substrate
